These results are taken from patent US20050267120A1 (Boehringer Ingelheim International GmbH, priority 2004, published 2005).

For one test, the target named is T1, hMCH-1R (Homo sapiens, UniProt Q99705).
T1 construct: expressed in transfected cells; host or cells: CHO/Galpha16 cells (membrane preparation)
Kind of test: MCH-1 receptor binding test. As to conditions: 125I-MCH binding, membranes of CHO/Galpha16 cells stably transfected with hMCH-1R. As for the experimental part:
200 μL of this membrane fraction (contains 1 to 3 μg of protein) are incubated for 60 minutes at ambient temperature with 100 pM of ^125I-tyrosyl melanin concentrating hormone (^125I-MCH commercially obtainable from NEN) and increasing concentrations of the test compound in a final volume of 250 μL. After the incubation the reaction is filtered using a cell harvester through 0.5% PEI treated fiberglass filters (GF/B, Unifilter Packard). The membrane-bound radioactivity retained on the filter is then determined after the addition of scintillator substance (Packard Microscint 20) in a measuring device (TopCount of Packard). […] The analysis of the concentration binding curve is carried out on the assumption of one receptor binding site.

For test [1] the following is noted: long term trials; cited from earlier work.
Another test relates to rats. As to conditions: cited from earlier work.

T1 sequence (Q99705 whole entry): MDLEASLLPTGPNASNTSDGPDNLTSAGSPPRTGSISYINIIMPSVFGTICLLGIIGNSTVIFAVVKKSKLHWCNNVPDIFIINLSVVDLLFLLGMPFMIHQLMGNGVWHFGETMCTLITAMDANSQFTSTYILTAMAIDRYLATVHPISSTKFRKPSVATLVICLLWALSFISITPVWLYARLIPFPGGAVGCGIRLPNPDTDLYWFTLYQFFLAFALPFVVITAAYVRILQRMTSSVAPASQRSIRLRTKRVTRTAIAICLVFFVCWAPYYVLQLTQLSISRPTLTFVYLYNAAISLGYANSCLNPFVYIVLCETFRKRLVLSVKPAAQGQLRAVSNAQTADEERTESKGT

One may read the IC50 as the concentration that inhibits the measured activity by half. The low end stands for greater potency in that assay, the high end for weaker potency in that assay. At hMCH-1R, `OC[C@@H]1CCCN1CC1CCc2cc(C#Cc3ccc(-c4ccc(Cl)cc4)cn3)ccc2O1` (stereo partly shown) [Example 1.1] gave an IC50 of 6 nM.
Still for that read-out and setting: in the case of `CC1CCN(Cc2cc(=O)c3cc(C#Cc4ccc(-c5ccc(Cl)cc5)cn4)ccc3o2)CC1` [Example 2.1, 6-[5-(4-chlorophenyl)pyridin-2-ylethynyl]-2-(4-methylpiperidin-1-ylmethyl)-1-benzopyran-4-one] it was 3 nM.
Take `COCC1=C(C(=O)OC)[C@H](c2ccc(F)c(F)c2)N(C(=O)NCCCN2CCC(c3cccc(NC(C)=O)c3)CC2)C(=O)N1` [SNAP-7941]: the body weight change entry in test [1] was “lose significant amounts of weight”. Also, the “effects in behavioral experiments” value in the test with rats is “anxiolytic and antidepressant effects”.
